Measured values as given in patent US7585892B2, “Compound for promoting the growth of neural cells” (Naturewise Biotech & Medicals Corporation, priority 2006, dated 2009).

Experiments:
Assay type in all cases: cell-based, Wistar rat
neural stem cells [1] = test: Continuous cultivation of NSCs for 30 days, cell morphology (Example 7)
Procedure: As in Example 1, the NSCs were cultivated continuously and the growth media were replaced every seven days. DMSO-added growth media were used as the negative control. After 30 days, 100 μl of the cell suspension was aspirated and diluted to 1 ml. 250 μl of the supernatant was aspirated and placed on the slides coated with 30 μg/ml poly-D-lysine (Sigma). The cell morphology was observed thereafter under a microscope.

cortical neurons [2] = test: Neurite length of cortical neurons at low cellular density (Example 4); conditions: 38 cells/mm^2, 5 days, control cells all dead
Procedure: Cells obtained from the suspension prepared in Example 1 were cultivated at a density of 38 cells/mm^2 in 6-well plates coated with 30 μg/ml poly-D-lysine (Sigma) at 37° C., 5% CO2 and 95% relative humidity. The growth media contained compounds A, B, D, and G respectively and the growth media added with 5 μl of DMSO were used as control. The differentiated cells are categorically called cortical neurons.
The experiments were repeated three times. After cultivating for 5 days, the cells were observed under microscope and the length of the neurites was measured.

neural stem cells [3] = test: Differentiation of NSCs from neurospheres, MAP-2 immunofluorescent staining (Example 5); conditions: added in the beginning, with or without adding again at seeding; 3 days + 3 days
Procedure: In the beginning of cultivating NSCs, either compound A or EGF was added into the growth media. The cells were cultivated for 3 days and the cells would aggregate to form neurospheres. One hundred μl of the cell suspension was aspirated and diluted to 1 ml. 250 μl of the supernatant which contained neurospheres was aspirated and placed on the cover slides coated with 30 μg/ml poly-D-lysine (Sigma). After all the cells had been attached onto the slides, the media was removed and replaced with the cultivating media containing compound A (FIG. 5A), EGF (FIG. 5C), or none of the growth factors (FIG. 5B, compound A in the beginning; FIG. 5D, EGF in the beginning). The cells were cultivated for another 3 days at the same condition as described above so that the cells would differentiate into cortical neurons.
The cells were stained with a known immunofluorescent staining method. To stain the neurons, a neurological marker of MAP-2 (microtubule-associated protein 2) antibody was used as the primary antibody and a fluorescent material-labeled mouse immunoglobulin that identified primary antibody was used as the second antibody. After the primary antibody that had been bound onto the neurons was identified and bound by the secondary antibody, the neurons emit fluorescent light under the excitation of a specific light source.

cortical neurons [4] = test: Survival of cortical neurons, MTT assay (Example 2); conditions: 300 cells/mm^2, 5 days, vs DMSO control
Procedure: Cells obtained from the suspension prepared in Example 1 were cultivated in 6-well plates coated with 30 μg/ml of poly-D-lysine (Sigma) at 300 cells/mm^2 and cultivated at 37° C., 5% CO2 and 95% relative humidity. The growth media contained compounds A, B, D, E, F, G, and H respectively and the growth media added with 5 μl of DMSO were used as control. The differentiated cells after cultivation were categorically called cortical neurons.
The experiments were repeated three times. After cultivating for 5 days, live cells were counted by a known cell-counting method (MTT assay) and the absorbance was read at 540 nm.

neural stem cells [5] = test: Differentiation of NSCs with compound D and EGF, immunofluorescent staining (Example 6); conditions: compound D and EGF in the beginning, only the named substance at seeding
Procedure: The procedures were similar to Example 5. However, in the beginning of cultivating the neural stem cells, both compound D and EGF were added into the media. After all the cells had been attached onto the slides, the media were removed and replaced with the cultivating media containing compound D (FIG. 6B), EGF (FIG. 6C), none of the growth factors (FIG. 6D), or both compound D and EGF (FIG. 6A). The cells were cultivated for another 3 days and the cell morphology was observed thereafter by using immunofluorescent staining technique.

SMILES	sphere formation of neural stem cells after 30 days (neural stem cells [1]; media replaced every seven days, control almost no surviving cells)	differentiation after 30 days culture plus another 3 days (immunofluorescence) (neural stem cells [1]; neurospheres grown 30 days with compound)	growth of neurons and neurites under microscope (cortical neurons [2]; 2.5 μM)	cell type after differentiation (MAP-2 staining) (neural stem cells [3])	live cells, MTT absorbance at 540 nm (cortical neurons [4])	growth of neurons and neurites under microscope (cortical neurons [2]; 5 μM)	cell type after differentiation (neural stem cells [5])
C/C(=C\Cc1c([C@@H]2CC(=O)c3c(O)cc(O)cc3O2)ccc(O)c1O)CCCC(C)(C)O [compound A]	can maintain the characteristics of forming spherical clusters	differentiating normally into neurons with the continuous outgrowth of neurites	continuous growth of the neurons and the extension of the neurites can be observed	the cells will differentiate into neurons	best results	–	–
C/C(=C\Cc1cc([C@@H]2CC(=O)c3c(O)cc(O)cc3O2)cc(O)c1O)CCCC(C)(C)O [compound B]	–	–	–	–	–	continuous growth of the neurons and the extension of the neurites can be observed	–
CC(C)=CCC/C(C)=C/Cc1c([C@@H]2CC(=O)c3c(O)cc(O)cc3O2)ccc(O)c1O [compound D]	–	–	–	–	best results	continuous growth of the neurons and the extension of the neurites can be observed	the cells will differentiate into neurons
CC(C)=CCC/C(C)=C/Cc1c(O)cc2c(c1O)C(=O)C[C@@H](c1ccc(O)c(O)c1CC=C(C)C)O2 [compound G]	–	–	–	–	best results	continuous growth of the neurons and the extension of the neurites can be observed	–
